± gives the expanded uncertainty stated by the source.

What is called refractive index is a measure of how strongly the sample bends light. Usually mass density stands for mass per unit of volume.

The nature of series [1]: refractive index (Na D-line) (dimensionless); wn = mass fraction of the nth substance listed. The settings on record: 298.15 K, 100 kPa, Liquid, Standard Abbe refractometry.
Series [2] can be described thus: wn = mass fraction of the nth substance listed. The settings on record: 298.15 K, 100 kPa, Liquid, Vibrating tube method.

Turning to `[Cl-].[Na+]` [sodium chloride] + O, the refractive index in series [1] (w1 = 0.2645) was found to be 1.3796 ± 0.0015. In series [2] (w1 = 0.2645), the mass density was found to be 1198.1 ± 5.6 kg/m3.
For `O=B[O-].[Na+]` [sodium metaborate] + O, the refractive index in series [1] (w1 = 0.2259) was 1.3872 ± 0.0007. Besides, the mass density in series [2] (w1 = 0.2259) was 1267.8 ± 1.1 kg/m3.
As to `O=S(=O)([O-])[O-].[Na+].[Na+]` [sodium sulfate] + O, in series [1] (w1 = 0.219), the refractive index was 1.3626 ± 0.002. Further, in series [2] (w1 = 0.219), the mass density was 1204.85 ± 14 kg/m3.
